According to ChEMBL document CHEMBL5303573, “Mapping human microbiome drug metabolism by gut bacteria and their genes” (Nature, 2019):

What was measured:
[1] = The drug is tested on Blautia hansenii strain: DSM20583 for biotransformation. The drug concentrations were measured before and after a 12-h incubation by liquid-chromatography-coupled mass spectrometry (LC–MS); details: 2 µM
[2] = The drug is tested on Eubacterium hallii strain: DSM3353 for biotransformation. The drug concentrations were measured before and after a 12-h incubation by liquid-chromatography-coupled mass spectrometry (LC–MS); details: anaerobutyricum hallii, 2 µM
[3] = The drug is tested on Collinsella aerofaciens strain: ATCC25986 for biotransformation. The drug concentrations were measured before and after a 12-h incubation by liquid-chromatography-coupled mass spectrometry (LC–MS); details: 2 µM
[4] = The drug is tested on Collinsella intestinalis strain: DSM13280 for biotransformation. The drug concentrations were measured before and after a 12-h incubation by liquid-chromatography-coupled mass spectrometry (LC–MS); details: 2 µM
[5] = segatella copri, 12 h, 2 µM
Description: The drug is tested on Prevotella copri strain: DSM18205 for biotransformation. The drug concentrations were measured before and after a 12-h incubation by liquid-chromatography-coupled mass spectrometry (LC–MS)

[6] = The drug is tested on Bacteroides fragilis strain: HMW610 for biotransformation. The drug concentrations were measured before and after a 12-h incubation by liquid-chromatography-coupled mass spectrometry (LC–MS); details: 2 µM
[7] = The drug is tested on Escherichia coli strain: BW25113 for biotransformation. The drug concentrations were measured before and after a 12-h incubation by liquid-chromatography-coupled mass spectrometry (LC–MS); details: 2 µM
[8] = The drug is tested on Enterococcus faecalis strain: V583 for biotransformation. The drug concentrations were measured before and after a 12-h incubation by liquid-chromatography-coupled mass spectrometry (LC–MS); details: 2 µM
[9] = The drug is tested on Bacteroides fragilis strain: ATCC43859 for biotransformation. The drug concentrations were measured before and after a 12-h incubation by liquid-chromatography-coupled mass spectrometry (LC–MS); details: 2 µM
[10] = The drug is tested on Clostridium scindens strain: ATCC35704 for biotransformation. The drug concentrations were measured before and after a 12-h incubation by liquid-chromatography-coupled mass spectrometry (LC–MS); details: 2 µM
[11] = The drug is tested on Eubacterium ventriosum strain: ATCC27560 for biotransformation. The drug concentrations were measured before and after a 12-h incubation by liquid-chromatography-coupled mass spectrometry (LC–MS); format: ADME; set-up: dose 2 uM, timepoint 0 vs 12 hours; details: 2 µM
[12] = The drug is tested on Ruminococcus lactaris strain: ATCC29176 for biotransformation. The drug concentrations were measured before and after a 12-h incubation by liquid-chromatography-coupled mass spectrometry (LC–MS); details: 2 µM
[13] = The drug is tested on Coprococcus comes strain: ATCC27758 for biotransformation. The drug concentrations were measured before and after a 12-h incubation by liquid-chromatography-coupled mass spectrometry (LC–MS); format: ADME; set-up: dose 2 uM, timepoint 0 vs 12 hours; details: 2 µM
[14] = The drug is tested on Subdoligranulum variabile strain: DSM15176 for biotransformation. The drug concentrations were measured before and after a 12-h incubation by liquid-chromatography-coupled mass spectrometry (LC–MS); details: 2 µM
[15] = enterocloster bolteae, 12 h, 2 µM
Description: The drug is tested on Clostridium bolteae strain: ATCCBAA-613 for biotransformation. The drug concentrations were measured before and after a 12-h incubation by liquid-chromatography-coupled mass spectrometry (LC–MS)

[16] = The drug is tested on Bacteroides cellulosilyticus strain: DSM14838 for biotransformation. The drug concentrations were measured before and after a 12-h incubation by liquid-chromatography-coupled mass spectrometry (LC–MS); details: 2 µM
[17] = The drug is tested on Bacteroides dorei strain: DSM17855 for biotransformation. The drug concentrations were measured before and after a 12-h incubation by liquid-chromatography-coupled mass spectrometry (LC–MS); details: phocaeicola dorei, 2 µM
[18] = The drug is tested on Odoribacter splanchnicus strain: fecal isolate for biotransformation. The drug concentrations were measured before and after a 12-h incubation by liquid-chromatography-coupled mass spectrometry (LC–MS); details: 2 µM
[19] = The drug is tested on Bacteroides pectinophilus strain: ATCC43243 for biotransformation. The drug concentrations were measured before and after a 12-h incubation by liquid-chromatography-coupled mass spectrometry (LC–MS); details: 2 µM
[20] = The drug is tested on Eubacterium rectale strain: ATCC33656 for biotransformation. The drug concentrations were measured before and after a 12-h incubation by liquid-chromatography-coupled mass spectrometry (LC–MS); details: agathobacter rectalis, 2 µM

Row | SMILES | Bacterial Biotransformation [1] | Bacterial Biotransformation [2] | Bacterial Biotransformation [3] | Bacterial Biotransformation [4] | Bacterial Biotransformation [5] | Bacterial Biotransformation [6] | Bacterial Biotransformation [7] | Bacterial Biotransformation [8] | Bacterial Biotransformation [9] | Bacterial Biotransformation [10] | Bacterial Biotransformation [11] | Bacterial Biotransformation [12] | Bacterial Biotransformation [13] | Bacterial Biotransformation [14] | Bacterial Biotransformation [15] | Bacterial Biotransformation [16] | Bacterial Biotransformation [17] | Bacterial Biotransformation [18] | Bacterial Biotransformation [19] | Bacterial Biotransformation [20]
1 | C[C@H]1O[C@@H](O[C@H]2[C@@H](O)C[C@H](O[C@H]3[C@@H](O)C[C@H](O[C@H]4CC[C@@]5(C)[C@H](CC[C@@H]6[C@@H]5C[C@@H](O)[C@]5(C)[C@@H](C7=CC(=O)OC7)CC[C@]65O)C4)O[C@@H]3C)O[C@@H]2C)C[C@H](O)[C@@H]1O [DIGOXIN] | Compound metabolized | Compound NOT metabolized | Compound NOT metabolized | Compound NOT metabolized | Compound NOT metabolized | Compound metabolized | Compound NOT metabolized | Compound NOT metabolized | Compound metabolized | Compound NOT metabolized | Compound NOT metabolized | Compound NOT metabolized | Compound NOT metabolized | Compound NOT metabolized | Compound NOT metabolized | Compound NOT metabolized | Compound metabolized | Compound metabolized | Compound NOT metabolized | 
2 | COc1cc2nc(N3CCN(C(=O)C4COc5ccccc5O4)CC3)nc(N)c2cc1OC.CS(=O)(=O)O (stereo unspecified) [DOXAZOSIN MESYLATE] | Compound metabolized | Compound NOT metabolized | Compound NOT metabolized | Compound NOT metabolized | Compound metabolized | Compound NOT metabolized | Compound metabolized | Compound NOT metabolized | Compound NOT metabolized | Compound NOT metabolized | Compound NOT metabolized | Compound NOT metabolized | Compound NOT metabolized | Compound NOT metabolized |  | Compound NOT metabolized | Compound metabolized | Compound NOT metabolized | Compound NOT metabolized | 
3 | OCCN1CCN(CCCN2c3ccccc3Sc3ccc(C(F)(F)F)cc32)CC1 [FLUPHENAZINE] | Compound NOT metabolized | Compound metabolized | Compound NOT metabolized | Compound NOT metabolized | Compound metabolized |  | Compound metabolized | Compound NOT metabolized | Compound NOT metabolized | Compound NOT metabolized | Compound metabolized | Compound NOT metabolized | Compound metabolized | Compound NOT metabolized | Compound NOT metabolized | Compound metabolized | Compound metabolized |  | Compound NOT metabolized | Compound metabolized
4 | COCCCC/C(=N\OCCN)c1ccc(C(F)(F)F)cc1.O=C(O)/C=C\C(=O)O [FLUVOXAMINE MALEATE] | Compound metabolized | Compound NOT metabolized | Compound NOT metabolized |  |  |  | Compound NOT metabolized | Compound NOT metabolized | Compound NOT metabolized | Compound NOT metabolized | Compound NOT metabolized | Compound NOT metabolized |  | Compound NOT metabolized |  | Compound NOT metabolized | Compound NOT metabolized |  | Compound metabolized | Compound NOT metabolized
5 | N#Cc1ccc(C(c2ccc(C#N)cc2)n2cncn2)cc1 [LETROZOLE] | Compound NOT metabolized | Compound NOT metabolized | Compound NOT metabolized | Compound NOT metabolized |  | Compound NOT metabolized | Compound NOT metabolized | Compound NOT metabolized | Compound NOT metabolized | Compound NOT metabolized | Compound NOT metabolized | Compound NOT metabolized | Compound NOT metabolized | Compound NOT metabolized | Compound NOT metabolized | Compound NOT metabolized | Compound NOT metabolized | Compound NOT metabolized | Compound NOT metabolized | 
6 | C=CCN1CC[C@]23c4c5ccc(O)c4O[C@H]2C(=O)CC[C@@]3(O)[C@H]1C5 [NALOXONE] | Compound metabolized | Compound NOT metabolized | Compound NOT metabolized | Compound NOT metabolized | Compound metabolized | Compound metabolized | Compound NOT metabolized |  | Compound metabolized |  | Compound NOT metabolized | Compound NOT metabolized | Compound NOT metabolized | Compound NOT metabolized | Compound NOT metabolized | Compound NOT metabolized | Compound metabolized | Compound NOT metabolized | Compound NOT metabolized | 
7 | C#C[C@]1(OC(C)=O)CC[C@H]2[C@@H]3CCC4=CC(=O)CC[C@@H]4[C@H]3CC[C@@]21C [NORETHINDRONE ACETATE] | Compound metabolized | Compound metabolized | Compound metabolized | Compound metabolized | Compound metabolized | Compound metabolized | Compound metabolized | Compound NOT metabolized | Compound metabolized | Compound NOT metabolized | Compound metabolized |  | Compound NOT metabolized | Compound NOT metabolized | Compound metabolized | Compound metabolized | Compound metabolized | Compound metabolized |  | Compound metabolized
8 | C#C[C@]1(OC(C)=O)CC[C@H]2[C@@H]3CCC4=C/C(=N/O)CC[C@@H]4[C@H]3CC[C@@]21CC [NORGESTIMATE] | Compound metabolized | Compound NOT metabolized | Compound NOT metabolized | Compound NOT metabolized | Compound NOT metabolized | Compound NOT metabolized | Compound NOT metabolized | Compound NOT metabolized | Compound NOT metabolized | Compound NOT metabolized | Compound NOT metabolized | Compound NOT metabolized | Compound NOT metabolized | Compound NOT metabolized | Compound NOT metabolized | Compound NOT metabolized | Compound metabolized |  | Compound NOT metabolized | Compound metabolized
